Laboratory results from patent publication US20250296942A1, “Phosphonate-Based Coordination Complexes and Methods of Preparation and Use Thereof” (University of Puerto Rico, priority 2021, published 2025).

Tests used:
[1] = Hydroxyapatite (HA) affinity/binding assay of 2,2′-BPBPA and nano-Ca@2,2′-BPBPA; conditions: for Amount (%) bound to HA, Mean: HA 20 mg, duplicate
Method: (§1) Affinity assays experiment. Synthetic HA was employed to explore the affinity of nano-Ca@2,2′-BPBPA to the bone microenvironment. HA (20 mg) was exposed to nano-Ca@2,2′-BPBPA (5 mL, 0.5 mg/mL). The 2,2′-BPBPA (0.5 mg/mL) and HA (20 mg) were used as control groups. All experimental and control groups were left under constant stirring (150 rpm) for 0-12 d. Finally, the supernatant was collected, centrifuged (5 min, 1500 rpm), and the absorbance was measured at λmax=299 nm of maximum absorption (1, 2, 3, 4, 7, 8, 9, 10, 11, 12 d) to determine the amount (%) of 2,2′-BPBPA bound to HA after each period. The experiment was performed in duplicate. Once the experiment was completed, HA, HA-2,2′-BPBPA, and HA-nano-Ca@2,2′-BPBPA were characterized by SEM-EDS and PXRD.
The affinity of nano-Ca@22′-BPBPA to the bone was investigated using hydroxyapatite (HA). The HA is the main constituent of the bone microenvironment; this mineral represents an ideal target when treating bone-related diseases.^45 The binding assay of the nano-Ca@2,2′-BPBPA to HA was performed in PBS at 37° C., the HA as a received reagent was exposed to this nano-BPCCs for 0-12 d. The binding assay for 2,2′-BPBPA to HA was determined as a control experiment. The affinity of these materials to HA was assessed by measuring the absorbance of the supernatant at the lambda max (λmax=299 nm) to quantify the decrease in the 2,2′-BPBPA concentration over time. Binding curves (FIG. 163A) reveal that 2,2′-BPBPA and the nano-Ca@2,2′-BPBPA presented between 32 to 37% binding to HA after 2 d. The ligand reaches about 90% of binding to HA after 7 d while the nano-Ca@2,2′-BPBPA offers a 93% of binding to this mineral after 8 d.
as §1, with “Binding assay with hydroxyapatite (HA).” for “Affinity assays experiment.”, “Experiment” for “The experiment”, “PXRD. Table 35 present the percentage (%) of 2,2′-BPBPA and nano-Ca@2,2′-BPBPA bound to HA in PBS. FIGS. 200-201 show the binding curves for 2,2′-BPBPA and nano-Ca@2,2′-BPBPA.” for “PXRD.”

[2] = Release of letrozole from drug-loaded 2,2′-BPBPA-Ca in FaSSGF; assay type: physicochemical; conditions: 37° C., 150 rpm, duplicate
Method: LET release curve from 2,2′-BPBPA-Ca. The release curve of LET from 2,2′-BPBPA-Ca was assessed in FaSSGF. A calibration curve for LET in FaSSGF was previously prepared; the lambda max (λmax) was detected at 238 nm (Supporting Information). About 100 mL of FaSSGF were placed in a 250-mL beaker and left in constant stirring at 37° C. (150 rpm).
(§2) Subsequently, […] of powdered drug-loaded 2,2′-BPBPA-Ca (experimental) were placed into the FaSSGF solution. After each time point (0, 1, 3, 6, 24, 48, and 72 h), an aliquot (1 mL) was taken out and diluted in a 5 mL volumetric flask. An aliquot was taken out before adding the drug-loaded material to record the first time point (0 h). Then, the absorbance was measured at 238 nm to determine the amount (%) of LET release from the 2,2′-BPBPA-Ca.
TGA thermographs for these drug-loaded materials were collected to determine the amount of LET loaded into the channels of 2,2′-BPBPA and nano-Ca@2,2′-BPBPA (20-21%, FIG. 8B). Furthermore, the release capacity of these drug-loaded BPCCs was assessed in physiological conditions (FaSSGF, pH=1.60) at 37° C. The LET release from 2,2′-BPBPA-Ca was determined by measuring the absorption of the supernatant at the lambda max (λmax=[…]) and quantifying the increase in the LET concentration over time.
as §2, with “Release experiment. […] About 100 mL of FaSSGF were placed in a 250-mL beaker and left in constant stirring at 37° C. (150 rpm). Subsequently,” for “Subsequently,”, “2,2′-BPBPA-Ca. The release curve of LET (control) in FaSSGF was used for comparison.” for “2,2′-BPBPA-Ca.”

[3] = PBS pH 7.40

SMILES: O=P(O)(O)c1ccc(-c2ccc(P(=O)(O)O)cn2)nc1 [2,2′-BPBPA, 2,2′-bipyridine-5,5′-bisphosphonic acid]
- maximum binding to HA ([1]; 0.5 mg/mL): 99%
- time to reach maximum binding to HA ([1]; 0.5 mg/mL): 12 days
- Amount (%) bound to HA, Mean ([1]; 0.5 mg/mL, PBS, 1 d): 18%
- Amount (%) bound to HA, Mean ([1]; 0.5 mg/mL, PBS, 2 d): 37%
- Amount (%) bound to HA, Mean ([1]; 0.5 mg/mL, PBS, 3 d): 66%
- Amount (%) bound to HA, Mean ([1]; 0.5 mg/mL, PBS, 4 d): 71%
- Amount (%) bound to HA, Mean ([1]; 0.5 mg/mL, PBS, 7 d): 90%
- Amount (%) bound to HA, Mean ([1]; 0.5 mg/mL, PBS, 8 d): 99%
- Amount (%) bound to HA, Mean ([1]; 0.5 mg/mL, PBS, 11 d): 99%
- Amount (%) bound to HA, Mean ([1]; 0.5 mg/mL, PBS, 12 d): 99%
- bound to HA ([1]; PBS, 37 °C, 7 d): about 90%

SMILES: N#Cc1ccc(C(c2ccc(C#N)cc2)n2cncn2)cc1 [LET, letrozole]
- Percentage (%) of letrozole (LET) released, Mean ([2]; 1 h): 65%
- Percentage (%) of letrozole (LET) released, Mean ([2]; 3 h): 72%
- Percentage (%) of letrozole (LET) released, Mean ([2]; 6 h): 75%
- Percentage (%) of letrozole (LET) released, Mean ([2]; 24 h): 93%
- Percentage (%) of letrozole (LET) released, Mean ([2]; 48 h): 94%
- Percentage (%) of letrozole (LET) released, Mean ([2]; 72 h): 94%

SMILES: O=P(O)(O)C(O)(Cc1cccnc1)P(=O)(O)O [RISE, Monosodium risedronate hemipentahydrate]
- time to reach maximum dissolution [3]: 30 min
